From patent US10100088B2, “Glycopeptide derivatives for the preservation and protection of biological materials and microorganisms” (TFCHEM, priority 2014, dated 2018)
Entries after “also recorded” stand apart in the source; their conditions may differ. Read-outs that look alike come from different tables or passages of the source. Values belong to the compound of their own block, whether it stands above or below them.

Key:
[1] = tested on: human neonatal skin fibroblasts; assay: Oxidative stress (H2O2), neutral red uptake viability; type: cell-based; conditions: for viability at 5000 µg/mL / viability at 10000 µg/mL / viability at 15000 µg/mL: Homo sapiens, Skin fibroblast, read-out: Percentage of viability following oxidative stress; for viability at 5000 µg/mL: 5 mg/mL; for viability at 10000 µg/mL: 10 mg/mL; for viability at 15000 µg/mL: 15 mg/mL
Method: (§1) Induced stresses were performed as follow: Starvation
Then oxidative stress was performed as follow: 0.2 ml of solution at 500 μM of H2O2 was added in wells except for negative control where 0.2 ml of culture medium were added.
(§2) The neutral red uptake assay was used for the determination of cell viability. This assay is based on the ability of viable cells to incorporate and bind the supravital dye neutral red in its lysosomes. So, only the viable cells are dyed. At different times after the stress assay (T0), the plates were incubated with neutral red solution for 3.5 hours. The cells are subsequently washed, the dye is extracted in each well and the absorbance is read using a spectrophotometer.
(§3) For sampling, 1 mL of DMEM (without phenol red indicator) with neutral red (OD=0.110) was added to the cells for 3.5 hours (37° C., 10% CO2). After incubation, the medium was removed, two washes of PBS were realized and 1 mL of extraction solution (absolute ethanol 49%, ultrapure water 49%, glacial acetic acid 2%) was added. Plates were placed 15 minutes on rotary shaker in the dark before reading OD at 540 nm.
(§4) The percentage of viability for each assay was calculated as follow: % viability assay=(OD540 nm of tested solution−blank)*100/(OD540 nm of positive control−blank).

[2] = tested on: human neonatal skin fibroblasts (CCD-27SK, ATCC CRL-1475); assay: Starvation (serum deprivation) stress, neutral red uptake viability; type: cell-based; conditions: for viability at 5000 µg/mL: Homo sapiens, CCD-27Sk, read-out: Percentage of viability; for preservative/protective effect on skin fibroblasts (in words): starvation medium
Method: as §1, §2, §3
(§5) The OD540 nm average value of positive control was considered as 100% of viability.
as §4

[3] = tested on: human nasal epithelial cells (RPMI2650, ATCC CCL-30); assay: as above; type: cell-based; conditions: for viability at 10000 µg/mL: Homo sapiens, 10 mg/mL, read-out: Percentage of viability
Method: as §1, §2, §3, §5, §4

[4] = tested on: human neonatal skin fibroblasts; assay: UV stress (11 J/cm^2), neutral red uptake viability; type: cell-based; conditions: for viability at 5000 µg/mL / viability at 10000 µg/mL / viability at 15000 µg/mL: Homo sapiens, Skin fibroblast, light or radiation study, read-out: Percentage of viability following UV stress (11 J/cm^2); for viability at 5000 µg/mL: 5 mg/mL; for viability at 10000 µg/mL: 10 mg/mL; for viability at 15000 µg/mL: 15 mg/mL
Method: as §2, §3, §4

[5] = Comparative stability towards basic conditions (NaOD in D2O), 1H NMR; type: physicochemical
Method: In a first set of experiments (experiments 1 to 7 in table 9), X (10 mg, 1.72 10^−2 mmol) was reacted with 2 to 8 equivalents of NaOD in a total volume of 355 μL of deuterium oxide ([X]=4.8 10^−2 mmol·mL^−1) during 2 h 30 before being acidified with 1M DCl in D2O. To be sure that all compounds in solution are in their acidic form, the equivalents of DCl are adjusted to 3 more equivalents of DCl than the amount required to neutralize the solution (nDCl=nNaOD+3). The volume was adjusted to 544 μL with deuterium oxide.
In a second set of experiments (experiments 8 to 14 in table 9), 17 (10 mg, 1.66 10^−2 mmol) was reacted with 2 to 8 equivalents of NaOD in a total volume of 343 μL of deuterium oxide ([17]=4.8 10^−2 mmol·mL^−1) during 2 h 30 before being acidified with 1M DCl in D2O. To be sure that all compounds in solution are in their acidic form, the equivalents of DCl are adjusted to 3 more equivalents of DCl than the amount required to neutralize the solution (nDCl=nNaOD+3). The volume was adjusted to 526 μL with deuterium oxide.
^1H NMR analyses were performed on each experiment. It is why experiments were realized in deuterium oxide and using 1M NaOD in D2O as base and 1M DCl in D2O as acid.
^1H NMR allows indeed the determination of the amount of compound X1 formed, by comparison between the integration corresponding to the methylene group of the lysine side chain connected to the nitrogen atom in X (CH2NGP) (3.3 ppm) and the integrationof the same methylene group in X1 (CH2Lys hydrolyzed) (3.0 ppm).
To confirm the structure of compounds X1 and X2, resulting from hydrolysis of X, the following experiment was realized, in which X (10 mg, 1.72 10^−2 mmol) was reacted with 8 equivalents of NaOD in a total volume of 355 μL of deuterium oxide ([X]=4.8 10^−2 mmol·mL^−1) during 3 days before being acidified with 1M DCl in D2O. In these conditions, almost the totality of compound X is hydrolyzed, the percentage of hydrolysis of compound X being 85% as determined by ^1H NMR as evidence in table 11.

[6] = D 1 after serum deprivation, 5 mg/mL (Table 2)
[7] = D 7 after serum deprivation, 5 mg/mL (Table 2)
[8] = D 4 after serum deprivation, 5 mg/mL (Table 2)
[9] = D4 after serum deprivation, 10 mg/mL, positive control with 5% FBS (Table 3)
[10] = D8 after serum deprivation, 10 mg/mL, positive control with 5% FBS (Table 3)

Compound: C[C@H](NC(=O)[C@H](C)NC(=O)[C@@H](N)CCCCNCC(F)(F)C1(O)O[C@H](CO)[C@H](O)[C@H](O)[C@H]1O)C(=O)O (stereo partly shown) [Compound 19]
- preservative/protective effect against oxidative stress (in words) ([1]; 5 to 15 mg/ml): preservative/protective effect against oxidative stress which is dose dependant
- viability at 5000 µg/mL ([1]; 1 h after 100 μM H2O2): 89 ± 2.7%
- viability at 10000 µg/mL ([1]; 1 h after 100 μM H2O2): 99 ± 0.5%
- viability at 15000 µg/mL ([1]; 1 h after 100 μM H2O2): 110 ± 2%
- viability at 5000 µg/mL ([1]; 24 h after 100 μM H2O2): 109 ± 2.2%
- viability at 10000 µg/mL ([1]; 24 h after 100 μM H2O2): 120 ± 2.1%
- viability at 15000 µg/mL ([1]; 24 h after 100 μM H2O2): 127 ± 5.8%
- growth/regenerative effect on stressed cells (in words) ([1]; viability increased in time after H2O2): growth/regenerative effect
- Percentage of viability [2, 6]: 73%
- Percentage of viability [2, 7]: 50%
- viability at 5000 µg/mL [2, 6]: 73 to 87%
- viability at 5000 µg/mL [2, 8]: 57%
- viability at 5000 µg/mL [2, 7]: 45 to 50%
- preservative/protective effect on skin fibroblasts (in words) [2]: significant preservative/protective effect
- viability at 10000 µg/mL ([3]; RPMI-2650, D4 after serum deprivation): 52 ± 4.64%
- viability at 10000 µg/mL ([3]; RPMI-2650, D6 after serum deprivation): 26%
- preservative/protective effect on human nasal epithelial cells (in words) ([3]; starvation medium, 10 mg/ml): preservative/protective effect
- preservative/protective effect against UV stress (in words) [4]: preservative/protective effect against UV stress
- viability at 5000 µg/mL ([4]; 1 h after irradiation): 53%
- viability at 10000 µg/mL ([4]; 1 h after irradiation): 70%
- viability at 15000 µg/mL ([4]; 1 h after irradiation): 67%
- viability at 5000 µg/mL ([4]; 3 h after irradiation): 71%
- viability at 10000 µg/mL ([4]; 3 h after irradiation): 80%
- viability at 15000 µg/mL ([4]; 3 h after irradiation): 80%
- viability at 5000 µg/mL ([4]; 24 h after irradiation): 89%
- viability at 10000 µg/mL ([4]; 24 h after irradiation): 116%
- viability at 15000 µg/mL ([4]; 24 h after irradiation): 112%
- growth or regenerative effect on stressed cells (in words) ([4]; viability increased in time after UV): growth or regenerative effect

Compound: CC(=O)O.CC(=O)O.C[C@H](NC(=O)[C@H](C)NC(=O)[C@@H](N)CCCCNCC(F)(F)C1(O)O[C@H](CO)[C@H](O)[C@H](O)[C@H]1O)C(=O)O (stereo partly shown) [Compound 20]
- Percentage of viability [2, 6]: 87%
- Percentage of viability [2, 8]: 63%
- Percentage of viability [2, 7]: 50%
- preservative/protective effect on skin fibroblasts (in words) [2]: significant preservative/protective effect

Compound: C[C@H](NC(=O)[C@@H](N)CCCCNCC(F)(F)C1(O)O[C@H](CO)[C@H](O)[C@H](O)[C@H]1O)C(=O)O.Cl.Cl (stereo partly shown) [Compound 22]
- Percentage of viability ([2]; D4 after serum deprivation, 10 mg/mL (Table 4)): 93%
- preservative/protective effect on skin fibroblasts (in words) [2]: significant preservative/protective effect

Compound: Cl.Cl.N[C@@H](CCCCNCC(F)(F)C1(O)O[C@H](CO)[C@H](O)[C@H](O)[C@H]1O)C(=O)NCC(=O)NCC(=O)O (stereo partly shown) [Compound 24]
- Percentage of viability [2, 9]: 99 ± 3.35%
- Percentage of viability [2, 10]: 95 ± 1.60%
- preservative/protective effect on skin fibroblasts (in words) [2]: significant preservative/protective effect

Compound: C[C@H](NC(=O)[C@@H](N)CCCCNCC(F)(F)C1(O)O[C@H](CO)[C@H](O)[C@H](O)[C@H]1O)C(=O)NCC(=O)O.Cl.Cl (stereo partly shown) [Compound 26]
- Percentage of viability [2, 9]: 89 ± 1.21%
- Percentage of viability [2, 10]: 64 ± 2.78%
- preservative/protective effect on skin fibroblasts (in words) [2]: significant preservative/protective effect

Compound: C[C@H](NC(=O)CNC(=O)[C@@H](N)CCCCNCC(F)(F)C1(O)O[C@H](CO)[C@H](O)[C@H](O)[C@H]1O)C(=O)O.Cl.Cl (stereo partly shown) [Compound 28]
- Percentage of viability [2, 9]: 109 ± 2.05%
- Percentage of viability [2, 10]: 108 ± 3.40%
- preservative/protective effect on skin fibroblasts (in words) [2]: significant preservative/protective effect

Compound: C[C@H](NC(=O)[C@H](C)NC(=O)[C@@H](N)CCCNCC(F)(F)C1(O)O[C@H](CO)[C@H](O)[C@H](O)[C@H]1O)C(=O)O.Cl.Cl (stereo partly shown) [Compound 30]
- Percentage of viability [2, 9]: 92 ± 1.2%
- Percentage of viability [2, 10]: 74 ± 0.5%
- preservative/protective effect on skin fibroblasts (in words) [2]: significant preservative/protective effect

Compound: C[C@H](NC(=O)[C@@H](N)CCCCNCC(F)(F)C1(O)O[C@H](CO)[C@H](O)[C@H](O)[C@H]1O)C(=O)N1CCC[C@H]1C(=O)O.Cl.Cl (stereo partly shown) [Compound 34]
- Percentage of viability [2, 9]: 103 ± 1%
- Percentage of viability [2, 10]: 103 ± 2%
- preservative/protective effect on skin fibroblasts (in words) [2]: significant preservative/protective effect

Compound: C[C@H](N)C(=O)N[C@@H](CCCCNCC(F)(F)C1(O)O[C@H](CO)[C@H](O)[C@H](O)[C@H]1O)C(=O)N[C@@H](C)C(=O)O.Cl.Cl (stereo partly shown) [Compound 38]
- Percentage of viability [2, 9]: 101 ± 3%
- Percentage of viability [2, 10]: 88 ± 3%
- preservative/protective effect on skin fibroblasts (in words) [2]: significant preservative/protective effect

Compound: Cl.Cl.N[C@@H](CCCCNCC(F)(F)C1(O)O[C@H](CO)[C@H](O)[C@H](O)[C@H]1O)C(=O)O (stereo partly shown) [Compound 44]
- Percentage of viability [2, 9]: 111 ± 2.9%
- Percentage of viability [2, 10]: 102 ± 1.3%
- preservative/protective effect on skin fibroblasts (in words) [2]: significant preservative/protective effect

- % hydrolyzed ([5]; 2 eq NaOD, 2 h 30, D2O): 2.0%
- % hydrolyzed ([5]; 3 eq NaOD, 2 h 30, D2O): 4.8%
- % hydrolyzed ([5]; 4 eq NaOD, 2 h 30, D2O): 13.0%
- % hydrolyzed ([5]; 5 eq NaOD, 2 h 30, D2O): 16.0%
- % hydrolyzed ([5]; 6 eq NaOD, 2 h 30, D2O): 19.0%
- % hydrolyzed ([5]; 7 eq NaOD, 2 h 30, D2O): 20.6%
- % hydrolyzed ([5]; 8 eq NaOD, 2 h 30, D2O): 22.2%
- % hydrolyzed ([5]; 8 eq NaOD, 2 h 30, D2O, listed as compound X): 22%
- % hydrolyzed ([5]; Control, 0 eq NaOD): 0.5%
- % hydrolysis ([5]; Experiment A, 0 eq NaOD (Table 11)): 0.5%
- % hydrolysis ([5]; Experiment B, 8 eq NaOD, 3 days, D2O): 85%
Compound: C[C@H](NC(=O)[C@H](C)NC(=O)[C@@H](N)CCCCNC(=O)C(F)(F)[C@]1(O)O[C@H](CO)[C@H](O)[C@H](O)[C@H]1O)C(=O)O [Compound X]
- stability towards basic conditions (in words) ([5]; 2 to 8 eq NaOD, 2 h 30, 1H NMR): degradation; also recorded: sensitive to basic medium
